Our source for the relative viability values is the supplement of paper PMC10307832.

What all share (assay): relative viability (nuclei count vs DMSO), 5 days (fraction); higher = more cells survive
Compound in the test “BAM7 + Pictilisib”: CCOC1=CC=CC=C1N=NC2=C(NN(C2=O)C3=NC(=CS3)C4=CC=CC=C4)C [BAM7] + CS(=O)(=O)N1CCN(Cc2cc3nc(-c4cccc5[nH]ncc45)nc(N4CCOCC4)c3s2)CC1 [Pictilisib] (partner 1 µM)
The essentials:
(§1)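 Medians of duplicate plates are given as relative viability. That measure is the nuclei count in treated wells divided by the count in vehicle wells. Counts were taken on 4× images of lung cancer cell lines in 1536-well plates, 5 days after pin-tool dosing the day after seeding with one drug alone or a fixed anchor-drug dose plus five library-drug doses (not always all listed) in √10 steps.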

Compound in the test “BAM7 + Bortezomib”: CCOC1=CC=CC=C1N=NC2=C(NN(C2=O)C3=NC(=CS3)C4=CC=CC=C4)C [BAM7] + CC(C)C[C@H](NC(=O)[C@H](Cc1ccccc1)NC(=O)c1cnccn1)B(O)O [Bortezomib] (partner 0.002 µM)
The gist of the method: as §1

Compound in the test “BAM7 + Olaparib”: CCOC1=CC=CC=C1N=NC2=C(NN(C2=O)C3=NC(=CS3)C4=CC=CC=C4)C [BAM7] + O=C(c1cc(Cc2n[nH]c(=O)c3ccccc23)ccc1F)N1CCN(C(=O)C2CC2)CC1 [Olaparib] (partner 8 µM)
The gist of the method:
as §1

Compound in test [1]: CCn1c(-c2nonc2N)nc2c(C#CC(C)(C)O)ncc(OC[C@H]3CCCNC3)c21 + Cc1nc(Nc2ncc(C(=O)Nc3c(C)cccc3Cl)s2)cc(N2CCN(CCO)CC2)n1 [Dasatinib] (partner 0.075 µM)
The gist of the method:
as §1

NCI-H2023: the relative viability with BAM7 + Pictilisib (first compound 0.5 µM) was determined as 0.277; in the test with BAM7 + Pictilisib (first compound 5 µM), 0.245; in the test with BAM7 + Pictilisib (first compound 15.81 µM), 0.3; with BAM7 + Pictilisib (first compound 50 µM) it was 0.297; with BAM7 + Bortezomib (first compound 0.5 µM), 0.988; with BAM7 + Bortezomib (first compound 5 µM), 0.905. In addition, the relative viability with BAM7 + Bortezomib (first compound 15.81 µM) was found to be 0.92; in the test with BAM7 + Bortezomib (first compound 50 µM), 1.08; in the test with BAM7 + Olaparib (first compound 0.5 µM), 0.475; with BAM7 + Olaparib (first compound 5 µM), 0.45; with BAM7 + Olaparib (first compound 15.81 µM), 0.363; with BAM7 + Olaparib (first compound 50 µM), 0.387. Moreover, the relative viability in test [1] (first compound 0.01 µM) was 0.454; in test [1] (first compound 0.03162 µM), 0.572; in test [1] (first compound 0.1 µM), 0.492; in test [1] (first compound 0.3162 µM), 0.388; in test [1] (first compound 1 µM) it was 0.344.

For the cell line NCI-H2085, the relative viability turned out to be 0.388 with BAM7 + Pictilisib (first compound 0.5 µM); 0.43 in the test with BAM7 + Pictilisib (first compound 5 µM); 0.365 with BAM7 + Pictilisib (first compound 15.81 µM); 0.439 with BAM7 + Pictilisib (first compound 50 µM); 1.07 in the test with BAM7 + Bortezomib (first compound 0.5 µM); 1.12 with BAM7 + Bortezomib (first compound 5 µM). Further, the relative viability in the test with BAM7 + Bortezomib (first compound 15.81 µM) is 0.979; with BAM7 + Bortezomib (first compound 50 µM) it was 1.16; with BAM7 + Olaparib (first compound 0.5 µM) it was 0.83; in the test with BAM7 + Olaparib (first compound 5 µM) it was 0.804; in the test with BAM7 + Olaparib (first compound 15.81 µM), 0.785; with BAM7 + Olaparib (first compound 50 µM) it was 0.786. The relative viability was 0.21 in test [1] (first compound 0.01 µM); 0.272 in test [1] (first compound 0.03162 µM); 0.278 in test [1] (first compound 0.1 µM); 0.255 in test [1] (first compound 0.3162 µM); 0.228 in test [1] (first compound 1 µM).

Turning to NCI-H2087, the relative viability with BAM7 + Pictilisib (first compound 0.5 µM) was 1.09; with BAM7 + Pictilisib (first compound 5 µM) it was 1.1; in the test with BAM7 + Pictilisib (first compound 15.81 µM) it was 0.989; with BAM7 + Pictilisib (first compound 50 µM) it was 0.893; with BAM7 + Bortezomib (first compound 0.5 µM), 0.892; in the test with BAM7 + Bortezomib (first compound 5 µM), 0.85. Moreover, the relative viability in the test with BAM7 + Bortezomib (first compound 15.81 µM) was 0.843; with BAM7 + Bortezomib (first compound 50 µM), 0.767; in the test with BAM7 + Olaparib (first compound 0.5 µM) it was 0.683; with BAM7 + Olaparib (first compound 5 µM), 0.685; with BAM7 + Olaparib (first compound 15.81 µM) it was 0.559; in the test with BAM7 + Olaparib (first compound 50 µM), 0.456. For the same cell line, the relative viability in test [1] (first compound 0.01 µM) was determined as 0.738; in test [1] (first compound 0.03162 µM), 0.751; in test [1] (first compound 0.1 µM) it was 0.936; in test [1] (first compound 0.3162 µM), 0.795; in test [1] (first compound 1 µM) it was 0.913.

Regarding NCI-H2126, the relative viability stood at 0.514 in the test with BAM7 + Pictilisib (first compound 0.5 µM); 0.448 with BAM7 + Pictilisib (first compound 5 µM); 0.507 with BAM7 + Pictilisib (first compound 15.81 µM); 0.479 in the test with BAM7 + Pictilisib (first compound 50 µM); 1.07 with BAM7 + Bortezomib (first compound 0.5 µM); 1 with BAM7 + Bortezomib (first compound 5 µM). Besides, the relative viability came out at 1.08 in the test with BAM7 + Bortezomib (first compound 15.81 µM); 1.08 in the test with BAM7 + Bortezomib (first compound 50 µM); 0.892 in the test with BAM7 + Olaparib (first compound 0.5 µM); 0.877 with BAM7 + Olaparib (first compound 5 µM); 0.905 with BAM7 + Olaparib (first compound 15.81 µM); 0.92 in the test with BAM7 + Olaparib (first compound 50 µM). The relative viability in test [1] (first compound 0.01 µM) worked out at 0.587; in test [1] (first compound 0.03162 µM) it was 0.468; in test [1] (first compound 0.1 µM) it was 0.597; in test [1] (first compound 0.3162 µM), 0.579; in test [1] (first compound 1 µM), 0.677.
